Source: PMC9966181, “Polyphenols with Anti-Inflammatory Properties: Synthesis and Biological Activity of Novel Curcumin Derivatives” (International Journal of Molecular Sciences, 2023)

Key:
Type in all cases: cell-based, C57BL/6 mice
[1] = test system: PGE2 production; assay: Inhibition of PGE2 production in LPS-stimulated peritoneal macrophages (ELISA); settings: for IC50: peritoneal macrophages, compounds 1 h before 10 ng/mL LPS, supernatant after 6 h, average of three independent experiments in duplicate ± S.D.; for Relative activity on PGE2 production (SAR ranking): ranking among the monofunctionalized, discussion
Experimental: (§1) Peritoneal macrophages were obtained four days after i.p. instillation of 2 mL of thioglycollate 3%, by peritoneal washing with chilled RPMI. Cells were seeded in RPMI with 10% FCS at 2 × 10^5/well in 96-well plates and cultured for 2 h at 37 °C in an atmosphere of 5% CO2. Cells were treated with compounds 1–15 (30 μM) 1 h before the stimulus with 10 ng/mL of LPS. For dose response experiments, cells were pre-treated with different concentrations (1, 3, 10, 30 μM) of compounds 1, 2, 4, 5, 6, 8, 10, 13, and 15 before the stimulation with 10 ng/mL of LPS. All the treatments and controls were performed in the presence of 0.5% of DMSO, as compounds are solubilized in this solvent. Supernatants were collected 6h after the stimulus with LPS.
(§2) Peritoneal macrophages were cultured as previously described. The concentrations of IL-6 were determined by ELISA (DuoSet kit, R&D System) according to the manufacturer’s protocol. The concentration of prostaglandin E2 (PGE2) was determined using the “Prostaglandin E2 ELISA Kit - Monoclonal” from Cayman CHEMICAL, according to the manufacturer’s protocol.
(§3) Results were analyzed using the statistical software package GraphPad Prism 5. Data are presented as means ± S.E.M. Statistical analysis was performed by Student’s t-test. A significant difference between groups was considered when p < 0.05. The half maximal inhibitory concentration (IC50) was calculated by adjusting a sigmoidal dose–response curve following GraphPad Prism5 procedure.

[2] = test system: IL-6 production; assay: Inhibition of IL-6 production in LPS-stimulated peritoneal macrophages (ELISA); settings: for IC50: peritoneal macrophages, compounds 1 h before 10 ng/mL LPS, supernatant after 6 h, average of three independent experiments in duplicate ± S.D.; for Relative activity on IL-6 production (SAR ranking): ranking in discussion; for Dose-dependent inhibition of IL-6 production: 1, 3, 10, 30 μM, 10 ng/mL LPS; for Dose-dependent inhibition of IL-6 production / Effect on production of IL-6 at single concentration: 6 h; for Effect on production of IL-6 at single concentration: 30 μM, 1 h before 10 ng/mL LPS
Experimental: as §1, §2, §3

[3] = test system: Peritoneal macrophages; assay: Cytotoxicity assay (MTT) on peritoneal macrophages; settings: 30 μM, after supernatant collection
Experimental: as §1
After the removal of supernatants, 100 µL of MTT (0.5 mg/mL) dissolved in RPMI were added to each well and cells were incubated overnight at 37 °C. The supernatants were removed and formazan crystals were dissolved in 100 µL of 0.04 M HCl in isopropanol. The color was analyzed at 570 nm using an ELISA plate reader. The percent of viable cells was calculated using the formula: % viability: [(OD sample) × 100%]/(OD control). The non-stimulated cells, cultured in medium plus 10% FCS and 0.5% DMSO, represented 100% viability.

[4] = Mus musculus, Peritoneal macrophage

| Molecule | Relative activity on PGE2 production (SAR ranking) [1] | Relative activity on IL-6 production (SAR ranking) [2] | IC50 [1, 4] [µM] | IC50 [2, 4] [µM] | Effect on production of IL-6 at single concentration [2] | also measured |
| --- | --- | --- | --- | --- | --- | --- |
| 4-((1E,4Z,6E)-5-Hydroxy-7-(4-hydroxy-3-methoxyphenyl)-3-oxohepta-1,4,6-trien-1-yl)-2-methoxyphenyl (1,2,3,4-tetrahydronaphthalen-1-yl) Succinate [Compound 15] | showed activity | less active | – | – | – | Effect on PGE2 production at 3 μM ([1]; 3 μM): significantly reduced PGE2 production; IC50 [1]: 3.07 ± 0.72 µM; IC50 [2]: 10.4 ± 0.75 µM |
| COc1cc(/C=C/C(O)=C/C(=O)/C=C/c2ccc(OCc3ccccc3)c(OC)c2)ccc1O [Compound 2, reference compound] | – | – | 0.51 ± 0.08 | 3.59 ± 0.27 | – | Effect on PGE2 production at 1 μM ([1]; 1 μM): showed an effect; Dose-dependent inhibition of PGE2 production ([1]; 1, 3, 10, 30 μM, 10 ng/mL LPS, 6 h): inhibitory effect on PGE2 production at all concentrations tested; Effect on IL-6 production at lowest concentration ([2]; 1 μM): statistically significant inhibitory effect; Dose-dependent inhibition of IL-6 production [2]: inhibited the production of IL-6 in a dose-dependent manner |
| COc1cc(/C=C/C(=O)/C=C(O)/C=C/c2ccc(OC(=O)CCC(=O)OC3C4CC5CC(C4)CC3C5)c(OC)c2)ccc1OC(=O)CCC(=O)OC1C2CC3CC(C2)CC1C3 (centres unmarked) [Compound 3, Di((1r,3r,5r,7r)-adamantan-2-yl) O,O′-(((1E,3Z,6E)-3-hydroxy-5-oxohepta-1,3,6-triene-1,7-diyl)bis(2-methoxy-4,1-phenylene)) Disuccinate] | – | – | – | – | did not show this activity | – |
| COc1cc(/C=C/C(O)=C/C(=O)/C=C/c2ccc(OC(=O)CCC(=O)OC3C4CC5CC(C4)CC3C5)c(OC)c2)ccc1O (centres unmarked) [Compound 4, (1r,3r,5r,7r)-Adamantan-2-yl (4-((1E,4Z,6E)-5-hydroxy-7-(4-hydroxy-3-methoxyphenyl)-3-oxohepta-1,4,6-trien-1-yl)-2-methoxyphenyl) Succinate] | lowest activity | less active | 4.5 ± 3.18 | 10.5 ± 0.6 | inhibited the production of IL-6 | – |
| COc1cc(/C=C/C(O)=C/C(=O)/C=C/c2ccc(OC(=O)CCC(=O)OCc3ccc4c(c3)C(=O)c3ccccc3C4=O)c(OC)c2)ccc1O [Compound 5, (9,10-Dioxo-9,10-dihydroanthracen-2-yl)methyl (4-((1E,4Z,6E)-5-hydroxy-7-(4-hydroxy-3-methoxyphenyl)-3-oxohepta-1,4,6-trien-1-yl)-2-methoxyphenyl) Succinate] | showed activity | less active | 2.6 ± 1.75 | 7.11 ± 0.75 | – | – |
| COc1cc(/C=C/C(O)=C/C(=O)/C=C/c2ccc(OC(=O)CCC(=O)OC(c3ccccc3)c3ccccc3)c(OC)c2)ccc1O [Compound 6, Benzhydryl (4-((1E,4Z,6E)-5-hydroxy-7-(4-hydroxy-3-methoxyphenyl)-3-oxohepta-1,4,6-trien-1-yl)-2-methoxyphenyl) Succinate] | showed activity | – | 4.43 ± 0.85 | 4.21 ± 0.73 | inhibited the production of IL-6 | – |
| COc1cc(/C=C/C(=O)/C=C(O)/C=C/c2ccc(OC(=O)CCC(=O)OC(c3ccccc3)C3CCCCC3)c(OC)c2)ccc1OC(=O)CCC(=O)OC(c1ccccc1)C1CCCCC1 (centres unmarked) [Compound 7, Bis(cyclohexyl(phenyl)methyl) O,O′-(((1E,3Z,6E)-3-hydroxy-5-oxohepta-1,3,6-triene-1,7-diyl)bis(2-methoxy-4,1-phenylene)) Disuccinate] | – | – | – | – | did not show this activity | – |
| COc1cc(/C=C/C(O)=C/C(=O)/C=C/c2ccc(OC(=O)CCC(=O)OC(c3ccccc3)C3CCCCC3)c(OC)c2)ccc1O (centres unmarked) [Compound 8, Cyclohexyl(phenyl)methyl (4-((1E,4Z,6E)-5-hydroxy-7-(4-hydroxy-3-methoxyphenyl)-3-oxohepta-1,4,6-trien-1-yl)-2-methoxyphenyl) Succinate] | lowest activity | – | 5.9 ± 2.38 | 1.94 ± 0.66 | not statistically significant | – |
| COc1cc(/C=C/C(=O)/C=C(O)/C=C/c2ccc(OC(=O)CCC(=O)OC3c4ccccc4-c4ccccc43)c(OC)c2)ccc1OC(=O)CCC(=O)OC1c2ccccc2-c2ccccc21 [Compound 9, Di(9H-fluoren-9-yl) O,O′-(((1E,3Z,6E)-3-hydroxy-5-oxohepta-1,3,6-triene-1,7-diyl)bis(2-methoxy-4,1-phenylene)) Disuccinate] | – | – | – | – | did not show this activity | – |
| COc1cc(/C=C/C(O)=C/C(=O)/C=C/c2ccc(OC(=O)CCC(=O)OC3c4ccccc4-c4ccccc43)c(OC)c2)ccc1O [Compound 10, 9H-Fluoren-9-yl (4-((1E,4Z,6E)-5-hydroxy-7-(4-hydroxy-3-methoxyphenyl)-3-oxohepta-1,4,6-trien-1-yl)-2-methoxyphenyl) Succinate] | lowest activity | – | 5.93 ± 2.29 | 3.6 ± 0.21 | inhibited the production of IL-6 | – |
| COc1cc(/C=C/C(O)=C/C(=O)/C=C/c2ccc(OC(=O)CCC(=O)O[C@@H]3C[C@H](C)CC[C@H]3C(C)C)c(OC)c2)ccc1OC(=O)CCC(=O)O[C@H]1C[C@@H](C)CC[C@@H]1C(C)C [Compound 12, O,O′-(((1E,3Z,6E)-3-Hydroxy-5-oxohepta-1,3,6-triene-1,7-diyl)bis(2-methoxy-4,1-phenylene)) bis((1R,2S,5R)-2-isopropyl-5-methylcyclohexyl) Disuccinate] | – | – | – | – | did not show this activity | – |
| COc1cc(/C=C/C(O)=C/C(=O)/C=C/c2ccc(OC(=O)CCC(=O)O[C@@H]3C[C@H](C)CC[C@H]3C(C)C)c(OC)c2)ccc1O [Compound 13, 4-((1E,4Z,6E)-5-Hydroxy-7-(4-hydroxy-3-methoxyphenyl)-3-oxohepta-1,4,6-trien-1-yl)-2-methoxyphenyl((1R,2S,5R)-2-isopropyl-5-methylcyclohexyl) Succinate] | lowest activity | less active | 5.42 ± 2.04 | 10.6 ± 0.33 | – | – |
| Curcumin [Compound 1, reference compound] | – | – | – | – | – | IC50 [1]: 1.34 ± 0.067 µM; Cytotoxicity / cell viability (MTT) [3]: affected cell viability; Dose-dependent inhibition of IL-6 production [2]: inhibited the production of IL-6 in a dose-dependent manner; IC50 [2]: 6.85 ± 2.5 µM |
